Results: patent publication USRE50319E1, “Compounds and methods for treating cancer” (Dana-Farber Cancer Institute, Inc., priority 2017, dated 2025)
Where a name gives a salt, the structure may show the parent alone. Values belong to the compound of their own block, whether it stands above or below them.

How the values were obtained:
[1] = biological target: POLQ (Homo sapiens, UniProt O75417); assay: γ-32P-ATP based radiometric ATPase assay; assay type: biochemical; conditions: for inhibition of POLQ (ATPase) activity: FIG. 2B radiometric ATPase assay
Description: FIG. 2C is a bar plot showing quantification of the radiometric ATPase assay showing in FIG. 2B. SMARCAL1 was used as a control ATPase to identify inhibitors that show specificity to POLQ.
100 μM novobiocin was used in the assay. MTX=Mitoxantrone; SUR=Suramin sodium salt; NVB=novobiocin; AUR=Aurintricarboxylic acid; VAND=vandetanib (EGFR inhibitor, negative control).

[2] = tested on: Alt-EJ repair pathway; assay: GFP reporter assay using EJ2 repair substrate (Alt-EJ); assay type: cell-based
Description: PARP inhibitor and ATM inhibitor were used as positive controls.
(§1) 10 μM concentration of each tested compound was used in the assay. Mitoxantrone and VAND kill cells.
(§2) 50 μM of each tested compound was used in the assay.

[3] = tested on: homologous recombination; assay: Homologous recombination repair assay; assay type: cell-based
Description: as §1, §2

[4] = tested on: BRCA1-deficient (HR-deficient) tumor cells; assay: Rapid Cell Titer Glo assay; assay type: cell-based
[5] = tested on: BRCA1-deficient tumor cells; assay: Clonogenic survival assay, BRCA1-deficient tumor cells; assay type: cell-based; conditions: FIG. 4, versus isogenic BRCA1-proficient cell line
[6] = tested on: BRCA1−/− RPE1 cells; assay: Clonogenic survival assay, RPE1 cells; assay type: cell-based; conditions: FIGS. 6 and 7
[7] = tested on: PARP inhibitor (olaparib) resistant RPE1 cells; assay: PARP inhibitor (olaparib) resistant cell lines; assay type: cell-based; conditions: FIG. 10
[8] = tested on: RAD51 foci; assay: RAD51 foci formation; assay type: cell-based; conditions: FIG. 11
[9] = tested on: yH2AX foci; assay: yH2AX foci formation; assay type: cell-based; conditions: FIG. 12
[10] = tested on: RPE1-p53−/− BRCA1−/− cells; assay: Apoptosis, Annexin V kit; assay type: cell-based; conditions: FIG. 13, analyzed 4 days after NVB
[11] = biological target: POLQ ATPase domain (Homo sapiens, UniProt O75417); assay: Pull-down with novobiocin-conjugated sepharose beads, POLQ; assay type: binding; conditions: FIG. 15; novobiocin conjugated to sepharose beads
Source text: FIG. 14 contains an image showing that novobiocin was successfully conjugated to sepharose beads.
The color in the left tube is attributed to the novobiocin bound to the beads.

POLQ, sequence (O75417 whole entry): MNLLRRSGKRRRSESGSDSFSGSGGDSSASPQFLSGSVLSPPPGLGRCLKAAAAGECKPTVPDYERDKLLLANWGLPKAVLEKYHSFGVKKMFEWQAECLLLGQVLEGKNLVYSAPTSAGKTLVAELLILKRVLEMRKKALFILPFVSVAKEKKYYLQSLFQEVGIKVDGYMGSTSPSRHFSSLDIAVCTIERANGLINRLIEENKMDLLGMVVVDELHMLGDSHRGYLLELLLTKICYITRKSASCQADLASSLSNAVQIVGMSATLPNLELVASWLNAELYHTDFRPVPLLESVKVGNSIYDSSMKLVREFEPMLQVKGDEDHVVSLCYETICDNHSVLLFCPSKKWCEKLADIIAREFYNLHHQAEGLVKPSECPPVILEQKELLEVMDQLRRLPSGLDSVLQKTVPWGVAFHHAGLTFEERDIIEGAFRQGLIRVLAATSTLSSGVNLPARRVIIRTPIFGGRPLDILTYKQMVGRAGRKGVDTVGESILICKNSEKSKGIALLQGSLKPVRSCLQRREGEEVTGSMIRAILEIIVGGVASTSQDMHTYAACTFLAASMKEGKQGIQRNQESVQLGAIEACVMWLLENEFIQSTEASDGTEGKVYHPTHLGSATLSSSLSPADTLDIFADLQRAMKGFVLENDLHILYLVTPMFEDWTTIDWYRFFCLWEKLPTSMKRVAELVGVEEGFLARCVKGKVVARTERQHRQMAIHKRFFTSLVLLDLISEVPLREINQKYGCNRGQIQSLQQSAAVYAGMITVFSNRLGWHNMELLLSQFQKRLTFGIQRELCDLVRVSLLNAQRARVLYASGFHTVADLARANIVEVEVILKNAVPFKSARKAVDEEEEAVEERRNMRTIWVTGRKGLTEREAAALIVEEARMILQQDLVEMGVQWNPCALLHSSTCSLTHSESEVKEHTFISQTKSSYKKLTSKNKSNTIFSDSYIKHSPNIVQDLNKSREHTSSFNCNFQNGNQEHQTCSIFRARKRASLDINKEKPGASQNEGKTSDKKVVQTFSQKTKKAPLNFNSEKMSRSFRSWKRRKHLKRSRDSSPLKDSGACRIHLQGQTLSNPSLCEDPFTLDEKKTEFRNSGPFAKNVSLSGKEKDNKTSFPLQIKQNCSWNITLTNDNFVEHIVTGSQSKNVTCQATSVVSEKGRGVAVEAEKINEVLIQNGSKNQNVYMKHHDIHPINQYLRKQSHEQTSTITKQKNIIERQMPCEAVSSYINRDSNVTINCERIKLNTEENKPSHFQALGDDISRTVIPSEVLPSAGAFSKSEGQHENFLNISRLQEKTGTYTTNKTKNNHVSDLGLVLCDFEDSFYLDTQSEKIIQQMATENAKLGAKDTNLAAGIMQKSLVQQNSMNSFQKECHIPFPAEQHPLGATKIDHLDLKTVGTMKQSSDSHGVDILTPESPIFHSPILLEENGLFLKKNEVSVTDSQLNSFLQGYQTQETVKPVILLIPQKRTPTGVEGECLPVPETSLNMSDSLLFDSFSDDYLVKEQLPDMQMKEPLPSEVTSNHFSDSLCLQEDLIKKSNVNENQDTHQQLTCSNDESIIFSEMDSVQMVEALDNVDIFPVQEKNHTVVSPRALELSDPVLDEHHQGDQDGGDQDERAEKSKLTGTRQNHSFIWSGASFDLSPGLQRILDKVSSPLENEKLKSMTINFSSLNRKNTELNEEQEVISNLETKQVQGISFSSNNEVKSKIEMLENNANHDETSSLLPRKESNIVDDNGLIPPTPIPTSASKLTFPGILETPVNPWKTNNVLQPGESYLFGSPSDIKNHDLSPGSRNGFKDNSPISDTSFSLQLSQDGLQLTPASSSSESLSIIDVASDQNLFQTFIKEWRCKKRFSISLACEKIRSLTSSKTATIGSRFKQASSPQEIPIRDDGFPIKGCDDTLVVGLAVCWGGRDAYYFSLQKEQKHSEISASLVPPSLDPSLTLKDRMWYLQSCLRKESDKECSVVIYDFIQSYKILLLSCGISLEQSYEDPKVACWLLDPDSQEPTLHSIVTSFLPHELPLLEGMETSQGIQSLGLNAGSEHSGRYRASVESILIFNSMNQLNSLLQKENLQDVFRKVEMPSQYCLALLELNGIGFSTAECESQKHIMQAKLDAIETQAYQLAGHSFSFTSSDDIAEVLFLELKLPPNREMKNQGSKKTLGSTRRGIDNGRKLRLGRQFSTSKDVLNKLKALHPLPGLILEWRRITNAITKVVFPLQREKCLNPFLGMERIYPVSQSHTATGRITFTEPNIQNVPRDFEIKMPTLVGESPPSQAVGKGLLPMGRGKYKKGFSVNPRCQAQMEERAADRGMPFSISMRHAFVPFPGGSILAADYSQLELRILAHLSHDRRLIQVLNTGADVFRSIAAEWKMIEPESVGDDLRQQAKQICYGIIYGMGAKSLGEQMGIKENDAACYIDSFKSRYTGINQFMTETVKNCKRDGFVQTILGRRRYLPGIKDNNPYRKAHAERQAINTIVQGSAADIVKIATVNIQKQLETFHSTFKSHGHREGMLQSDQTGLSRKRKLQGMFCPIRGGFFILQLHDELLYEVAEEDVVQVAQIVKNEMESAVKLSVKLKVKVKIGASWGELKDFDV
POLQ ATPase domain, sequence (O75417 102-554 limits assumed): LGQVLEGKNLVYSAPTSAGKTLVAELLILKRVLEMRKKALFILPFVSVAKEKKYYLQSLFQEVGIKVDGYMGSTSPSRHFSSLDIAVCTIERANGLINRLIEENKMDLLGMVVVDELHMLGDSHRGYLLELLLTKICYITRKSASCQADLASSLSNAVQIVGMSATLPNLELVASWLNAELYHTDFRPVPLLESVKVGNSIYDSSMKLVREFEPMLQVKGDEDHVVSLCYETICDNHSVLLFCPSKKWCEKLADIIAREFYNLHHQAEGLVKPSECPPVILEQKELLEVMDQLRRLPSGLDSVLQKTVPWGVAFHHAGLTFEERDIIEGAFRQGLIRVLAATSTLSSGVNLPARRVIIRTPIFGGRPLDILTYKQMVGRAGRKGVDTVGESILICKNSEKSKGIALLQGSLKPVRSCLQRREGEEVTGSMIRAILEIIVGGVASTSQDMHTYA

Compound: O=C1c2c(O)ccc(O)c2C(=O)c2c(NCCNCCO)ccc(NCCNCCO)c21 [Mitoxantrone]
- inhibition of POLQ (ATPase) activity [1]: inhibited POLQ activity
- cell killing in the repair assay ([2]; FIG. 8, 10 μM): kill cells
- cell killing in the repair assay ([2]; FIG. 9, 50 μM): killed all cells

- inhibition of POLQ (ATPase) activity [1]: inhibited POLQ activity
Compound: Cc1ccc(C(=O)Nc2ccc(S(=O)(=O)O)c3cc(S(=O)(=O)O)cc(S(=O)(=O)O)c23)cc1NC(=O)c1cccc(NC(=O)Nc2cccc(C(=O)Nc3cc(C(=O)Nc4ccc(S(=O)(=O)O)c5cc(S(=O)(=O)O)cc(S(=O)(=O)O)c45)ccc3C)c2)c1 [S, Suramin sodium salt]

Compound: COc1cc2c(Nc3ccc(Br)cc3F)ncnc2cc1OCC1CCN(C)CC1 [VAND, vandetanib]
- cell killing in the repair assay ([2]; FIG. 8, 10 μM): kill cells
- cell killing in the repair assay ([2]; FIG. 9, 50 μM): killed all cells

- inhibition of POLQ (ATPase) activity ([1]; listed as N): inhibited POLQ activity
- inhibition of POLQ (ATPase) activity ([1]; listed as Novobiocin): inhibits the ATPase of POLQ
- specificity to POLQ ([1]; FIG. 2C, SMARCAL1 used as control ATPase): showed some specificity to POLQ
- binding / pull-down of POLQ ATPase domain [11]: specifically binds to POLQ ATPase domain
Compound: CO[C@@H]1[C@@H](OC(N)=O)[C@@H](O)[C@H](Oc2ccc3c(O)c(NC(=O)c4ccc(O)c(CC=C(C)C)c4)c(=O)oc3c2C)OC1(C)C [novobiocin]
- inhibition of ATPase activity of POLQ ([1]; FIG. 5, 32P-based ATPase activity assay, 100 μM novobiocin): specifically inhibits ATPase activity of POLQ
- POLQ ATPase inhibition compared with related ATPases ([1]; versus ATPase activity of SMARCA or CHD1): inhibits the POLQ ATPase more strongly than it inhibits the ATPase activity of SMARCA or CHD1
- inhibition of Alt-EJ ([2]; FIG. 2D, EJ2 repair substrate GFP reporter): inhibited Alt-EJ
- inhibition of alternative end-joining ([2]; FIG. 8, 10 μM): inhibits alternative end-joining
- inhibition of alternative end-joining ([2]; FIG. 9, 50 μM): inhibits alternative end-joining
- inhibition of homologous recombination ([3]; FIG. 8, 10 μM): not homologous recombination
- inhibition of homologous recombination ([3]; FIG. 9, 50 μM): not homologous recombination
- selective killing of BRCA1-deficient (HR-deficient) tumor cells ([4]; FIG. 3): selectively kills BRCA1-deficient (HR-deficient) tumor cells
- selective killing of BRCA1-deficient (HR-deficient) tumor cells ([4]; FIG. 3, listed as Novobiocin): selectively kills HR-deficient cells as strongly as PARP inhibitor
- selective killing of BRCA1-deficient tumor cells [5]: selectively kills the BRCA1-deficient tumor cells
- selective killing of BRCA1-deficient tumor cells ([5]; listed as Novobiocin): selectively kills BRCA1-deficient tumor cells
- specific killing of BRCA1−/− RPE1 cells [6]: specifically kills BRCA1−/− RPE1 cells
- killing of PARP inhibitor resistant RPE1 cells [7]: kills RPE1 cells that are resistant to the PARP inhibitor
- RAD51 foci formation [8]: induces RAD51 and yH2AX foci formation
- yH2AX foci formation [9]: induces RAD51 and yH2AX foci formation
- induction of apoptosis [10]: induces apoptosis specifically in RPE1-p53−/− BRCA1−/− cells

Compound: O=C(c1cc(Cc2n[nH]c(=O)c3ccccc23)ccc1F)N1CCN(C(=O)C2CC2)CC1 [olaparib]
- selective killing of BRCA1-deficient (HR-deficient) tumor cells ([4]; FIG. 3): selectively kills BRCA1-deficient (HR-deficient) tumor cells
